Publication PMC5855630, “The Design and Development of Potent Small Molecules as Anticancer Agents Targeting EGFR TK and Tubulin Polymerization” (International Journal of Molecular Sciences, 2018)
“And” between values parts separate entries of the source, which are not always exact repeats. Equal values may be shown once.

Key:
[1] = system: MCF-7 breast cancer cell line; experiment: MTT cancer cell antiproliferative assay, MCF-7; format: cell-based; conditions: Homo sapiens, MCF7, 24 h treatment
Procedure: (§1) The newly synthesized compounds 4a–e, 6a–c and 9a–d were evaluated for their in vitro anticancer activity against two breast cancer cell lines; Michigan cancer foundation-7 (MCF-7) and M.D. Anderson metastasis breast cancer-231 (MDA-MB-231) according to (3-(4,5-dimethylthiazole-2-yl)-2,5-diphenyltetrazolium bromide) tetrazolium (MTT) assay method by using erlotinib as positive tyrosine kinase (TK) drug.
(§2) The in vitro anticancer activities of the target compounds against two breast cancer cell lines; luminal human breast adenocarcinoma (estrogen-receptor (ER) and progesterone-receptor (PR)) positive MCF-7 and negative human breast cancer (MDA-MB-231) cell lines were evaluated as described with some modifications. Cell line cells were obtained from American Type Culture Collection, cells was cultured using DMEM (Invitrogen Life Technologies, Waltham, MA, USA) supplemented with 10% FBS (Hyclone, Logan, UT, USA), 10 µg/mL of insulin (Sigma, St. Louis, MO, USA), and 1% penicillin-streptomycin. All of the other chemical sand reagents were from (Sigma, St. Louis, MO, USA). The cells […] were sub-cultured into a 96-well plate with […] per well in medium, at 37 °C, 5% CO2 and 95% air atmosphere, before being treated with or without various concentrations of test compounds, each in triplicate for 24 h. At the end of the incubation, the cells were harvested and washed with PBS. 20 µL of MTT was added to each well and incubated for 2 h before 200 µL DMSO was added. The absorbance was measured on an ELISA reader (Multiskan EX, Lab systems, Waltham, MA, USA) at a test wavelength of 570 nm.

[2] = system: MDA-MB-231 breast cancer cell line; experiment: MTT cancer cell antiproliferative assay, MDA-MB-231; format: cell-based, human; conditions: 24 h treatment
Procedure: as §1, §2

[3] = biological target: tubulin polymerization (Tubulin Beta, Tubb) (Homo sapiens, UniProt P07437+P68363); experiment: Tubulin polymerization inhibition (ELISA for Tubulin Beta); format: biochemical
Description: Microtubule-targeting agents affect microtubule function and stop mitosis, resulting in necrosis and apoptosis and eventually cell death.
This assay was done according to reported procedures

[4] = biological target: T1, epidermal growth factor receptor (EGFR) tyrosine kinase (TK) (Homo sapiens, UniProt P00533); experiment: EGFR TK inhibition assay (HT Scan EGFR kinase assay kit); format: biochemical; conditions: GST-EGFR protein, 400 μM ATP
T1 construct: purchased Cell Signaling Technology
Procedure: The compound (4b) bears flexible benzylamine terminal moiety, while the (6a) and (6c) derivatives bear sulphonamide moieties and 9a–b with Schiff fragments.
EGFR kinase activity was measured by HT Scan EGFR kinase assay kits (Cell Signaling Technology, Danvers, MA, USA). The experiments were done following the manufacturer’s directions. […] Strapavidin-coated 96-well plates was used to take phosphorylated substrate. Anti-phosphotyrosine and europium-labeled secondary antibodies (DELFIA, Perkin-Elmer, Akron, OH, USA) was used to monitor the level of phosphorylation. At the end of the assay, the enrichment solution was added and enzyme activity was assessed in the Wallac Victor II 1420 micro-plate reader (Abcam, Milton, Cambridge, UK) and […].

MDA-MB-231 cells = experiment: Annexin V-FITC apoptosis analysis; format: cell-based, human; conditions: IC50 concentration, 48 h
Description: Apoptosis induction was examined in treated MDA-MB-231 cells by use of an Annexin V-fluorescine isothiocyanate (FITC) (Abcam, Milton, Cambridge, UK). The treatment of the cells with target compound (6c) and erlotinib drug with antiproliferative detected concentrations have been applied for comparison. […] The apoptosis-inducing effect of target compound was investigated by flow cytometric analysis of MDA-MB-231 cells stained with Annexin V and propidium iodide. […] This might be extra behavior interpreting the potent cytotoxic effect of such compounds.
This analysis was performed following the reported procedures.

Sequence of tubulin polymerization (Tubulin Beta, Tubb) (P07437 whole entry): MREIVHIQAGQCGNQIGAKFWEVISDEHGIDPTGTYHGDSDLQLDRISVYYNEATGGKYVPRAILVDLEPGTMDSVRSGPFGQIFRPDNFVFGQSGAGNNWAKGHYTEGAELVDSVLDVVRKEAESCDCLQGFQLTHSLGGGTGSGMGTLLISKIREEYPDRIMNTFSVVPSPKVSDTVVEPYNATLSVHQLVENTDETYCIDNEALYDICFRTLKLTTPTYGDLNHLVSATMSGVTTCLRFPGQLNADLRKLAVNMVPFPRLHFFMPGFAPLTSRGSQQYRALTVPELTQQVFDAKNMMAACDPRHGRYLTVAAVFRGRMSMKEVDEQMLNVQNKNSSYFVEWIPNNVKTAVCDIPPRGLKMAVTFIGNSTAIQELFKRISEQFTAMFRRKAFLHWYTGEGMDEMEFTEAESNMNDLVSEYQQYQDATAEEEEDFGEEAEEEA
Sequence of tubulin polymerization (Tubulin Beta, Tubb) (P68363 whole entry): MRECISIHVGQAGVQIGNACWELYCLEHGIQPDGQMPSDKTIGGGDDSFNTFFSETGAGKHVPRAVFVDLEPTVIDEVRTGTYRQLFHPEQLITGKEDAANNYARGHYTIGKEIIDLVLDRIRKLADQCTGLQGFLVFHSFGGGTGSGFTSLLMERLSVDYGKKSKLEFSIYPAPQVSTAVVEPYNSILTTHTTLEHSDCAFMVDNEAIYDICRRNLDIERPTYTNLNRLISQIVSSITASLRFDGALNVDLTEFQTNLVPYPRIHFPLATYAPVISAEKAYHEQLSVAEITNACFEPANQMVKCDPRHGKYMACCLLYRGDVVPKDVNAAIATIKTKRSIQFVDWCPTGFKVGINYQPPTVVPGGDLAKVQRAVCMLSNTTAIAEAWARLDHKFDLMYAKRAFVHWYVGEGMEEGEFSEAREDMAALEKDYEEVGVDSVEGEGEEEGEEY
T1 sequence (P00533 25-1210): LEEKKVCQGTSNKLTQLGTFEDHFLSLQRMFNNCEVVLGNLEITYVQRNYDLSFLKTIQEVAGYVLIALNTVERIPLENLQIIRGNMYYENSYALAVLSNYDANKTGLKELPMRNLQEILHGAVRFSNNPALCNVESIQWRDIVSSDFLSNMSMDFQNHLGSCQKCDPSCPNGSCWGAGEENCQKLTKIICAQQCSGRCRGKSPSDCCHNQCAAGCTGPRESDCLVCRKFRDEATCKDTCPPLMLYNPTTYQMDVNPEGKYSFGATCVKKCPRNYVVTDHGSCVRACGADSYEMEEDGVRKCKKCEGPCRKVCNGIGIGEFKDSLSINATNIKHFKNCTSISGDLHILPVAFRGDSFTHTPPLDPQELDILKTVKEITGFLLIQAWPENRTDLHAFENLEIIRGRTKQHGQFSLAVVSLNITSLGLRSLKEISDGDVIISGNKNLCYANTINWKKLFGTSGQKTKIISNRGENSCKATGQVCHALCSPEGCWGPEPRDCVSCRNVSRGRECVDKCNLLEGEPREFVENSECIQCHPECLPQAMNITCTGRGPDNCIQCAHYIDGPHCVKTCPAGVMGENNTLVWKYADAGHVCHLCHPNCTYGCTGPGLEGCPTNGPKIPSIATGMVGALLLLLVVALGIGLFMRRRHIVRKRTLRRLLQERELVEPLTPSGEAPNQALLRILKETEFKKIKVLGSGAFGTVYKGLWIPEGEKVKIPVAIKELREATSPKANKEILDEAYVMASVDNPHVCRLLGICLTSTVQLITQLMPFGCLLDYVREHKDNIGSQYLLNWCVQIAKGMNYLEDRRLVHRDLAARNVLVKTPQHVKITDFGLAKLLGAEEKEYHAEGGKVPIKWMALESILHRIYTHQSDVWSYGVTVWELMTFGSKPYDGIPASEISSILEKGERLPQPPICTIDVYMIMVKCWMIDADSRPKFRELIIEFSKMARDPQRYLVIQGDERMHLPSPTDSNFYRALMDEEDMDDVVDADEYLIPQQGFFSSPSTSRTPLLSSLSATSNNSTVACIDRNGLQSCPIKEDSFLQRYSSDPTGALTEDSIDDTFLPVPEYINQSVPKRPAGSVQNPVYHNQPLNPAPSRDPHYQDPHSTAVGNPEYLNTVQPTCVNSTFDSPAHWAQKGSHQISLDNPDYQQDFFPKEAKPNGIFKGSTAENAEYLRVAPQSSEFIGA

Compound	IC50 [1] [nM]	melting point [°C]	IC50 ([2]; Homo sapiens, MDA-MB-231, 24 h) [nM]	IC50 [3] [nM]	IC50 [4]	Apoptosis induction (Annexin V / propidium iodide flow cytometry) (MDA-MB-231 cells)	IC50 [2] [nM]
O=C(Nc1ccccc1C(=O)Nc1ccc(S(=O)(=O)Nc2ccccn2)cc1)c1ccco1 [Compound 6b, N-{2-[(4-(N-(Pyridin-2-Yl)sulfamoyl]phenyl)carbamoyl)phenyl}furan-2-carboxamide]	0.065	209 to 211	4.45 ± 0.3	–	–	–	–
COc1ccc(CNC(=O)c2ccccc2NC(=O)c2ccco2)cc1 [Compound 4b, N-{2-[(4-Methoxybenzyl)carbamoyl]phenyl}furan-2-carboxamide]	0.45 ± 0.12	207 to 209	0.76 ± 0.11	140.8 ± 0.15	31 nM and 30.5 nM	–	–
O=C(Nc1ccccc1C(=O)N/N=C/c1ccc(Cl)cc1Cl)c1ccco1 [Compound 9d, (E)-N-{2-[2-(2,4-Dichlorobenzylidene)hydrazine-1-carbonyl]phenyl}furan-2-carboxamide]	0.48 ± 0.14	212 to 214	2.53 ± 0.12	–	–	–	–
O=C(Nc1ccccc1C(=O)NCc1ccc(Cl)cc1)c1ccco1 [Compound 4d, N-{2-[(4-Chlorobenzyl)carbamoyl]phenyl}furan-2-carboxamide]	0.64 ± 0.25	213 to 215	3.29 ± 0.14	–	–	–	–
NS(=O)(=O)c1ccc(NC(=O)c2ccccc2NC(=O)c2ccco2)cc1 [Compound 6a, N-{2-[(4-Sulfamoylphenyl)carbamoyl]phenyl}furan-2-carboxamide]	0.62 ± 0.12	188 to 189	0.66 ± 0.11	87.6 ± 0.13	85.4 ± 0.32 nM	–	–
O=C(Nc1ccccc1C(=O)Nc1ccc(S(=O)(=O)Nc2nccs2)cc1)c1ccco1 [Compound 6c, N-{2-[(4-(N-(Thiazol-2-Yl)sulfamoyl)phenyl)carbamoyl]phenyl}furan-2-carboxamide]	0.34 ± 0.2	–	0.4	155 ± 0.25	110 ± 0.14 nM	accumulation of apoptotic cells	0.32 ± 0.21
O=C(Nc1ccccc1C(=O)N/N=C/c1ccccn1)c1ccco1 [Compound 9c, (E)-N-{2-[2-(Pyridin-2-ylmethylene)hydrazine-1-carbonyl]phenyl}furan-2-carboxamide]	0.15 ± 0.15	–	14.8 ± 0.2	–	–	–	–
O=C(Nc1ccccc1C(=O)N/N=C/c1ccccc1)c1ccco1 [Compound 9a, (E)-N-{2-[(2-Benzylidenehydrazine)-1-carbonyl]phenyl}furan-2-carboxamide]	0.51 ± 0.16	205 to 207	0.68 ± 0.02	410.6 ± 0.12	59.3 ± 0.11 nM	–	–
O=C(Nc1ccccc1C(=O)N/N=C/c1ccc(O)cc1O)c1ccco1 [Compound 9b, (E)-N-{2-[2-(2,4-Dihydroxybenzylidene)hydrazine-1-carbonyl]phenyl}furan-2-carboxamide]	0.78 ± 0.11	–	0.48 ± 0.01	108.4 ± 0.14	31 nM and 31.2 nM	–	–
Cc1ccc(CNC(=O)c2ccccc2NC(=O)c2ccco2)cc1 [Compound 4e, N-{2-[(4-Methylbenzyl)carbamoyl]phenyl}furan-2-carboxamide]	0.88 ± 0.25	175 to 178	5.59 ± 0.2	–	–	–	–
COC(=O)c1ccccc1NC(=O)c1ccco1 [Compound 2, Methyl 2-(Furan-2-carboxamido)benzoate]	2.43 ± 0.2	190 to 192	1.21 ± 0.25	–	–	–	–
O=C(Nc1ccccc1C(=O)NCc1ccc(F)cc1)c1ccco1 [Compound 4c, N-{2-[(4-Fluorobenzyl)carbamoyl]phenyl}furan-2-carboxamide]	2.59 ± 0.32	218 to 220	3.11 ± 0.5	–	–	–	–
C#Cc1cccc(Nc2ncnc3cc(OCCOC)c(OCCOC)cc23)c1 [Erlotinib, reference compound]	0.45 ± 0.08	–	3.74 ± 0.01	–	–	accumulation of apoptotic cells	–
NNC(=O)c1ccccc1NC(=O)c1ccco1 [Compound 7, N-[2-(Hydrazinecarbonyl)phenyl]furan-2-carboxamide]	1.91 ± 0.11	210 to 212	35.85 ± 0.12	–	–	–	–
O=C(Nc1ccccc1C(=O)NCc1ccccc1)c1ccco1 [Compound 4a]	3.35 ± 0.11	230 to 232	8.82 ± 0.14	–	–	–	–
